Data reported in patent publication US20230248653A1, “ELECTROSPRAYED AND ELECTROSPUN CANNABINOID COMPOSITIONS AND PROCESS TO PRODUCE” (priority 2019, published 2023).

Test: Solubility of CBD in water, HFIP and acetic acid-water solutions
Assay type: physicochemical
Source text: Fast dissolving particles were produced using edible gelatin nanoscale particles created from acetic acid-water based solutions. A solution was created, and the electrospray process was repeated to see if reproducible results were obtainable.
In order to create CBD particles in a gelatin-based solution, the solubility of CBD in different acetic acid-water based solutions was explored.

C=C(C)[C@@H]1CCC(C)=C[C@H]1c1c(O)cc(CCCCC)cc1O [CBD, Cannabidiol]
solubility in acetic acid-water solution (30% v/v AA(aq.)): Emulsions were formed
solubility in acetic acid-water solution (40% v/v AA(aq.)): Emulsions were formed
solubility in acetic acid-water solution (50% v/v AA(aq.) and higher concentrations): clear, homogeneous and well mixed soluble CBD solution
solubility in HFIP (HFIP): soluble
solubility in water (water): not able to dissolve in water
